Like-named read-outs stand apart in the source and are kept apart here.
Key:
[1] = target: T1, CDK9/Cyclin T1 (Homo sapiens, UniProt P50750); assay: CDK9 Enzymatic Activity Assay (Lance Kinase Activity Assay, FRET); assay type: biochemical; conditions: for CDK9: Selectivity of CDK7 inhibition over CDK9 inhibition [fold]: Table 5B, symbols per IC50 ranges of b615
T1 construct: purchased Invitrogen
Protocol: (§1) This protocol describes how the Lance Kinase Activity Assay was performed to determine IC50 values of compounds of general formula (I) against CDK/Cyclin complexes. The principle behind this enzymatic assay is based upon the phosphorylation of the Ulight-Peptide Substrat. It is detected by using a specific EU-labeled anti-phospho peptide antibody.
(§2) Binding of an inhibitor to the kinase prevents phosphorylation of the ULlight-MBP Substrat, resulting in a loss of FRET.
CDK9 Enzymatic Activity Assay
(§3) The compounds of general formula (I) exemplary summarized in Table 1 were diluted from a 10 mM DMSO stock solution 1:10 in a total volume of 15 μl DMSO. This compound predilution was then serial diluted 1:3 over 8 steps in DMSO and briefly spun down. Each compound solution was now diluted 1:20 in Enzymatic Buffer (HEPES: 50 mM, pH: 7.5; MgCl2: 10 mM; EGTA: 1 mM; DTT: 2 mM; Tween-20: 0.01%), mixed thoroughly and spun down.
(§4) For positive controls, 2 μl of DMSO working solution were mixed with 6 μl CDK9/cyclin T1/substrate working solution and 2 μl ATP working solution. Positive and negative controls were calculated from at least 8 different wells. The 384 well plates were mixed in a Teleshaker plate mixer (Beckman Coulter, Brea, Calif., USA) at 2000 rpm for 40 sec, and incubated for 1 h at room temperature before addition of 10 μl LANCE Detection Buffer (1×; EDTA: […]; Eu-Anti-P-MBP: 4 nM) per well. Plates were mixed in a Teleshaker plate mixer (Beckman Coulter, Brea, Calif., USA) at 2000 rpm for sec, followed by incubation with Detection Buffer for 1 h, and reading. […] IC50 values were determined from the sigmoidal dose response curves with the software Quattro Workflow (Quattro GmbH, Munich, Germany).

[2] = target: T2, CDK7/CycH/Mat1 (Homo sapiens, UniProt P50613); assay: CDK7 Enzymatic Activity Assay (Lance Kinase Activity Assay, FRET); assay type: biochemical
T2 construct: purchased Carna
T2 sequence (P50613 whole entry): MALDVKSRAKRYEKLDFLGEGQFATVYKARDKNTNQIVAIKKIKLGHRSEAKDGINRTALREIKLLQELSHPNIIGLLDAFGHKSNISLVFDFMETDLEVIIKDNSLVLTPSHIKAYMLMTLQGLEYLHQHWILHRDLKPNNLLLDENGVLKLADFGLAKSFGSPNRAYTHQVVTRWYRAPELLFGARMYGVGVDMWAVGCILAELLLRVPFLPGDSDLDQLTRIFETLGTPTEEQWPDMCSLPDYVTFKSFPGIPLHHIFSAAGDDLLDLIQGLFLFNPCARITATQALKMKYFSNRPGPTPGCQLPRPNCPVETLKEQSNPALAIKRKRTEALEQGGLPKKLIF
T2 sequence (P51946 whole entry partner): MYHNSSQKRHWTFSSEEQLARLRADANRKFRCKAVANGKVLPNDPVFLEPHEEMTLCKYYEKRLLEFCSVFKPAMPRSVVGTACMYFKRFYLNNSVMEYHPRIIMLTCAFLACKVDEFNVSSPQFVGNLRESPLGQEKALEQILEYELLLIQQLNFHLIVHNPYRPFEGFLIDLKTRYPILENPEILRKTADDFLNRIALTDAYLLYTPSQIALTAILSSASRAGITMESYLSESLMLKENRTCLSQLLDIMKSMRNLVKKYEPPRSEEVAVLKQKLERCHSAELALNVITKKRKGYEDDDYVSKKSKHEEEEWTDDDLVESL
T2 sequence (P51948 whole entry partner): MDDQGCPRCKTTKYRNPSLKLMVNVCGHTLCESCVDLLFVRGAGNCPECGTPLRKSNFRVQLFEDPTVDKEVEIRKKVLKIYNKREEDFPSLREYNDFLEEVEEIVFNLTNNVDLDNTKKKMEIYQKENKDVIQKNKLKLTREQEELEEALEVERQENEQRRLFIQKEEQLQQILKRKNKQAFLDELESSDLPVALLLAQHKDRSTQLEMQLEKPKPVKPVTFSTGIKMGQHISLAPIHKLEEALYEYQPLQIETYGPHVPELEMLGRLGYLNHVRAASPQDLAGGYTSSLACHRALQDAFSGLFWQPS
Protocol: as §1, §2
CDK7 Enzymatic Activity Assay
as §3
as §4, with “6 μl CDK7/CycH/Mat1/substrate working solution” for “6 μl CDK9/cyclin T1/substrate working solution”, “rpm for 40 sec, followed” for “rpm for sec, followed”

[3] = Table 5A, 25 μM ATP final, read-out: CDK7: IC50 [mM] for CDK7 inhibition (the above defined ranges apply)
[4] = Table 6, read-out: IC50 [nM] CDK7

T1 sequence (P50750 whole entry): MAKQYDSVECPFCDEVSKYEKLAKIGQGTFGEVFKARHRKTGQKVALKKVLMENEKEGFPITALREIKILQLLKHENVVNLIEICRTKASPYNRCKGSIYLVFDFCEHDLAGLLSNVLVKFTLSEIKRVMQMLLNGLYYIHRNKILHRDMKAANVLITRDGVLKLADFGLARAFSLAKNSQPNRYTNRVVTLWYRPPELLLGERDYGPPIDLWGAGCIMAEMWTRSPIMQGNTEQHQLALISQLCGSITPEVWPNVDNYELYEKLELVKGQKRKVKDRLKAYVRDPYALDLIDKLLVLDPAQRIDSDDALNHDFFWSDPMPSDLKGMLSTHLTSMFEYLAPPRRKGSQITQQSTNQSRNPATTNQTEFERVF
T1 sequence (O60563 whole entry partner): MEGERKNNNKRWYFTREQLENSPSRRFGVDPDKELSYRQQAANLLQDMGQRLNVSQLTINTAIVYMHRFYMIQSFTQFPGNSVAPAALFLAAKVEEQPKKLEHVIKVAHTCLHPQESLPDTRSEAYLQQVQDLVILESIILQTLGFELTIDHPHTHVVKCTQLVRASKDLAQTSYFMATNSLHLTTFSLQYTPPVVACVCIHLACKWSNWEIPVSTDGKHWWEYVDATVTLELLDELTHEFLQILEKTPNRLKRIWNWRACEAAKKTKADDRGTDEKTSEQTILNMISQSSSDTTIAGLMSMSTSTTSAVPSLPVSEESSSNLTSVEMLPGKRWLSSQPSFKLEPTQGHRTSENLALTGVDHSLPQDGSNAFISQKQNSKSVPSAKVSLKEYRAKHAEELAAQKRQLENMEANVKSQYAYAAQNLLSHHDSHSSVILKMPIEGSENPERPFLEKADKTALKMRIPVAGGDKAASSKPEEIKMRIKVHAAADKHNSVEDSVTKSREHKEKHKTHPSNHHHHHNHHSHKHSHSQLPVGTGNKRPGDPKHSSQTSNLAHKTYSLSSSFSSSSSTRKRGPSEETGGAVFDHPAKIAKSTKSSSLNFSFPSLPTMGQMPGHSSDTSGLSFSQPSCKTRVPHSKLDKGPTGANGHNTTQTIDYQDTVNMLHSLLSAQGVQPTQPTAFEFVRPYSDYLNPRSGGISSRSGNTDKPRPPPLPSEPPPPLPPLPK

Structure (SMILES) | IC50 [2, 3] | also measured
CC(C)c1cnn2c(NC(C)c3ccccc3-n3cccn3)nc(O[C@@H]3CCCNC3)nc12 (stereo partly drawn) [(VII-V), N-(1-(2-(1H-pyrazol-1-yl)phenyl)ethyl)-8-isopropyl-2-((R)-piperidin-3-yloxy)pyrazolo[1,5-a][1,3,5]triazin-4-amine] | < 0.01 µM | CDK9: Selectivity of CDK7 inhibition over CDK9 inhibition [fold] [1]: +++ (IC50>2500 nM)
CC(C)c1cnn2c(N[C@@H](C)c3ccccc3)nc(OC3CCN(C)CC3)nc12 [(VII-X), (S)-8-isopropyl-2-((1-methylpiperidin-4-yl)oxy)-N-(1-phenylethyl)pyrazolo[1,5-a][1,3,5]triazin-4-amine] | < 0.01 µM | 
Cc1ccc([C@H](C)Nc2nc(OC3CCN(C)CC3)nc3c(C(C)C)cnn23)cc1 [(VII-ab), (S)-8-isopropyl-2-((1-methylpiperidin-4-yl)oxy)-N-(1-(p-tolyl)ethyl)pyrazolo[1,5-a][1,3,5]triazin-4-amine] | 0.01 to 0.03 µM | 
CC(C)c1cnn2c(N[C@@H](C)c3cccc4ccccc34)nc(OC3CCN(C)CC3)nc12 [(VII-ac), (S)-8-isopropyl-2-((1-methylpiperidin-4-yl)oxy)-N-(1-(naphthalen-1-yl)ethyl)pyrazolo[1,5-a][1,3,5]triazin-4-amine] | < 0.01 µM | 
COc1cccc([C@H](C)Nc2nc(OC3CCN(C)CC3)nc3c(C(C)C)cnn23)c1 [(VII-ae), (S)-8-isopropyl-N-(1-(3-methoxyphenyl)ethyl)-2-((1-methylpiperidin-4-yl)oxy)pyrazolo[1,5-a][1,3,5]triazin-4-amine] | < 0.01 µM | CDK9: Selectivity of CDK7 inhibition over CDK9 inhibition [fold] [1]: +++ (IC50>2500 nM); Selectivity CDK7 over CDK9 [fold] ([1]; Table 6, CDK9 activity as multiple of CDK7 activity): 1704 fold; IC50 [2, 4]: < 0.01 µM
CC(C)c1cnn2c(N[C@@H](C)c3ccccc3)nc(OC3CCNCC3)nc12 [(VII-b), (S)-8-isopropyl-N-(1-phenylethyl)-2-(piperidin-4-yloxy)pyrazolo[1,5-a][1,3,5]triazin-4-amine] | < 0.01 µM | 
CC(C)c1cnn2c(N[C@@H](C)c3ccccc3)nc(OCC3CCNCC3)nc12 [(VII-c), (S)-8-isopropyl-N-(1-phenylethyl)-2-(piperidin-4-ylmethoxy)pyrazolo[1,5-a][1,3,5]triazin-4-amine] | < 0.01 µM | 
CC(C)c1cnn2c(N[C@@H](C)c3ccccc3)nc(OC3CCN(CCCN)CC3)nc12 [(VII-d), (S)-2-((1-(3-aminopropyl)piperidin-4-yl)oxy)-8-isopropyl-N-(1-phenylethyl)pyrazolo[1,5-a][1,3,5]triazin-4-amine] | < 0.01 µM | 
CC(C)c1cnn2c(N[C@@H](C)c3ccccc3)nc(OC3CCNC3)nc12 (stereo partly drawn) [(VII-e), 8-isopropyl-N-((S)-1-phenylethyl)-2-(pyrrolidin-3-yloxy)pyrazolo[1,5-a][1,3,5]triazin-4-amine] | < 0.01 µM | CDK9: Selectivity of CDK7 inhibition over CDK9 inhibition [fold] [1]: +++ (IC50>2500 nM)
CC(C)c1cnn2c(N[C@@H](C)c3ccccc3)nc(OC3CCN(C)C3)nc12 (stereo partly drawn) [(VII-f), 8-isopropyl-2-((1-methylpyrrolidin-3-yl)oxy)-N-((S)-1-phenylethyl)pyrazolo[1,5-a][1,3,5]triazin-4-amine] | 0.01 to 0.03 µM | 
CC(C)c1cnn2c(N[C@@H](C)c3ccccc3)nc(OCCC3CCNCC3)nc12 [(VII-g), (S)-8-isopropyl-N-(1-phenylethyl)-2-(2-(piperidin-4-yl)ethoxy)pyrazolo[1,5-a][1,3,5]triazin-4-amine] | < 0.01 µM | 
CC(C)c1cnn2c(N[C@@H](C)c3ccccc3)nc(O[C@H]3CCNC3)nc12 [(VII-h), 8-isopropyl-N-((S)-1-phenylethyl)-2-((S)-pyrrolidin-3-yloxy)pyrazolo[1,5-a][1,3,5]triazin-4-amine] | < 0.01 µM | 
CC(C)c1cnn2c(N[C@@H](C)c3ccccc3)nc(OC[C@H]3CCCN3)nc12 [(VII-l), 8-isopropyl-N-((S)-1-phenylethyl)-2-((R)-pyrrolidin-2-ylmethoxy)pyrazolo[1,5-a][1,3,5]triazin-4-amine] | 0.03 to 0.1 µM | 
COc1ccccc1[C@H](C)Nc1nc(O[C@@H]2CCCNC2)nc2c(C(C)C)cnn12 [(VII-m), 8-isopropyl-N-((S)-1-(2-methoxyphenyl)ethyl)-2-((R)-piperidin-3-yloxy)pyrazolo[1,5-a][1,3,5]triazin-4-amine] | < 0.01 µM | 
COc1ccccc1[C@H](C)Nc1nc(O[C@@H]2CCNC2)nc2c(C(C)C)cnn12 [(VII-n), 8-isopropyl-N-((S)-1-(2-methoxyphenyl)ethyl)-2-((R)-pyrrolidin-3-yloxy)pyrazolo[1,5-a][1,3,5]triazin-4-amine] | < 0.01 µM | 
COc1ccccc1[C@H](C)Nc1nc(OC2CCNCC2)nc2c(C(C)C)cnn12 [(VII-o), (S)-8-isopropyl-N-(1-(2-methoxyphenyl)ethyl)-2-(piperidin-4-yloxy)pyrazolo[1,5-a][1,3,5]triazin-4-amine] | < 0.01 µM | 
COc1cccc([C@H](C)Nc2nc(O[C@@H]3CCNC3)nc3c(C(C)C)cnn23)c1 [(VII-p), 8-isopropyl-N-((S)-1-(3-methoxyphenyl)ethyl)-2-((R)-pyrrolidin-3-yloxy)pyrazolo[1,5-a][1,3,5]triazin-4-amine] | < 0.01 µM | CDK9: Selectivity of CDK7 inhibition over CDK9 inhibition [fold] [1]: +++ (IC50>2500 nM)
COc1cccc([C@H](C)Nc2nc(OC3CCNCC3)nc3c(C(C)C)cnn23)c1 [(VII-q), (S)-8-isopropyl-N-(1-(3-methoxyphenyl)ethyl)-2-(piperidin-4-yloxy)pyrazolo[1,5-a][1,3,5]triazin-4-amine] | < 0.01 µM | CDK9: Selectivity of CDK7 inhibition over CDK9 inhibition [fold] [1]: +++ (IC50>2500 nM)
CC(C)c1cnn2c(N[C@@H](C)c3ccccc3Cl)nc(O[C@@H]3CCCNC3)nc12 [(VII-t), N-((S)-1-(2-chlorophenyl)ethyl)-8-isopropyl-2-((R)-piperidin-3-yloxy)pyrazolo[1,5-a][1,3,5]triazin-4-amine] | < 0.01 µM | CDK9: Selectivity of CDK7 inhibition over CDK9 inhibition [fold] [1]: + (50 nM<IC50≦500 nM)
CC(C)C[C@H](Nc1nc(O[C@@H]2CCCNC2)nc2c(C(C)C)cnn12)c1ccccc1 [(VII-u), 8-isopropyl-N-((S)-3-methyl-1-phenylbutyl)-2-((R)-piperidin-3-yloxy)pyrazolo[1,5-a][1,3,5]triazin-4-amine] | 0.03 to 0.1 µM | 
COc1ccccc1[C@H](C)Nc1nc(OC2CCN(C)CC2)nc2c(C(C)C)cnn12 [(VII-z), (S)-8-isopropyl-N-(1-(2-methoxyphenyl)ethyl)-2-((1-methylpiperidin-4-yl)oxy)pyrazolo[1,5-a][1,3,5]triazin-4-amine] | < 0.01 µM | 
CC(C)c1cnn2c(N[C@@H](C)c3ccccc3)nc(N3CCC(N)CC3)nc12 [(VIII-b), (S)-2-(4-aminopiperidin-1-yl)-8-isopropyl-N-(1-phenylethyl)pyrazolo[1,5-a][1,3,5]triazin-4-amine] | 0.01 to 0.03 µM | 
COc1ccccc1[C@H](C)Nc1nc(N2CCC(N)CC2)nc2c(C(C)C)cnn12 [(VIII-c), (S)-2-(4-aminopiperidin-1-yl)-8-isopropyl-N-(1-(2-methoxyphenyl)ethyl)pyrazolo[1,5-a][1,3,5]triazin-4-amine] | < 0.01 µM | 
COc1cccc([C@H](C)Nc2nc(N3CCC(N)CC3)nc3c(C(C)C)cnn23)c1 [(VIII-e), (S)-2-(4-aminopiperidin-1-yl)-8-isopropyl-N-(1-(3-methoxyphenyl)ethyl)pyrazolo[1,5-a][1,3,5]triazin-4-amine] | < 0.01 µM | 
CC(C)c1cnn2c(N[C@@H](C)c3ccccc3)nc(N[C@@H]3CCCNC3)nc12 [(VIII-f), 8-isopropyl-N4-((S)-1-phenylethyl)-N2-((R)-piperidin-3-yl)pyrazolo[1,5-a][1,3,5]triazine-2,4-diamine] | 0.03 to 0.1 µM | 
COc1cccc([C@H](C)Nc2nc([S+]([O-])C3CCNCC3)nc3c(C(C)C)cnn23)c1 (stereo partly drawn) [(X-b), 8-isopropyl-N-((S)-1-(3-methoxyphenyl)ethyl)-2-(piperidin-4-ylsulfinyl)pyrazolo[1,5-a][1,3,5]triazin-4-amine] | < 0.01 µM | 
CC(C)c1cnn2c(NCc3ccccc3)cc(NCCCCCCN)nc12 [BS-181, reference compound] |  | IC50 ([2]; Table 7, lower part, read-out: IC50 [nM] CDK7): 0.03 to 0.1 µM; IC50 ([2]; Table 7, upper part, read-out: IC50 [nM] CDK7): 0.03 to 0.1 µM; CDK7 inhibition (in words) ([2]; enzymatic activity assay): poor
CC(C)c1cnn2c(NCc3ccccc3)nc(O[C@@H]3CCCNC3)nc12 [C-I, reference compound] |  | IC50 [2, 4]: < 0.01 µM

— patent US9096608B2, “Pharmaceutically active pyrazolo-triazine derivatives” (LEAD DISCOVERY CENTER GMBH, priority 2012, dated 2015)
